Experimental data as given in patent US8058307B2, “Alcanoic acid amides substituted by saturated O-heterocycles” (Novartis AG, priority 2005, dated 2011).

Molecular target: T1, renin (Homo sapiens, UniProt P00797)
T1 construct: This test measures the formation of angiotensin I in human plasma; from tissue; host or cells: human plasma
T1 sequence (P00797 67-406): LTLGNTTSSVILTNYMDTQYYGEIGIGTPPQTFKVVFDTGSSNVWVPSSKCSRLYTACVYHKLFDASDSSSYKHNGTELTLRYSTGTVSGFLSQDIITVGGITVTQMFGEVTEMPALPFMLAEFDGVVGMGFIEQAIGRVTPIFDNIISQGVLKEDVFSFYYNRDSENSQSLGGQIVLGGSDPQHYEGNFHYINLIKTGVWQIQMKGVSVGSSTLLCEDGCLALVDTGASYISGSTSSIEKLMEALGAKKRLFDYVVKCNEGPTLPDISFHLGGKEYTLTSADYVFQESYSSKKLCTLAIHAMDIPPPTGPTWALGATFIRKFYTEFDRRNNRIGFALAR
Test: in vitro test of Nussberger et al.: formation of angiotensin I in human plasma, radio-immunoassay
Assay type: biochemical
Settings: concentration which reduces the formation of angiotensin I in human plasma by 50%
Protocol: The effect of renin inhibitors is detected inter alia experimentally by means of in vitro tests where the reduction in the formation of angiotensin I is measured in various systems (human plasma, purified human renin together with synthetic or natural renin substrate). The following in vitro test of Nussberger et al. (1987) J. Cardiovascular Pharmacol., Vol. 9, pp. 39-44, is used inter alia. This test measures the formation of angiotensin I in human plasma. The amount of angiotensin I formed is determined in a subsequent radio-immunoassay. The effect of inhibitors on the formation of angiotensin I is tested in this system by adding various concentrations of these substances. The IC50 is defined as the concentration of the particular inhibitor which reduces the formation of angiotensin I by 50%.

IC50: 2.6 nM
SMILES: COCCCOc1cc(C[C@@H](C[C@H](N)[C@@H](O)C[C@H](C(=O)NC[C@H]2CCCO2)C(C)C)C(C)C)ccc1OC [Example 1, 5-Amino-4-hydroxy-2-isopropyl-7-[4-methoxy-3-(3-methoxypropoxy)benzyl]-8-methyl-N-(tetrahydrofuran-2(R)-ylmethyl)nonamide]
